Holding throughout (test): NCI anticancer screen, dose series, 48 h
Assay [1] deals with 786-0.
For assay [2], the system named is COLO 205.
The subject of assay [3] is DU-145.
Assay [4] concerns EKVX.
For assay [5], the system named is Hs-578T.
For assay [6], the system named is K562.
In assay [7] the test system is LOX IMVI.
The subject of assay [8] is MCF7.
The subject of assay [9] is MDA-MB-435.
Assay [10] relates to Malme-3M.
Assay [11] has as its system NCI-H522.
In assay [12] the test system is OVCAR-8.
Assay [13] concerns SF-295.
Assay [14] relates to SF-539.
Assay [15] relates to SK-OV-3.
For assay [16], the system named is SNB-19.
The test system of assay [17] is SNB-75.
Assay [18] deals with SW-620.
For assay [19], the system named is UACC-257.
The test system of assay [20] is UACC-62.

The text below walks through data of ChEMBL document CHEMBL1201862, “PubChem BioAssay data set” (2004).

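Five compound concentrations were applied to cells in 96-well plates for 48 hours; endpoints were derived by simple linear interpolation of the resulting dose-response curve. The concentration for 50% growth inhibition is given as GI50.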 Activity calls are given as the source filed them. No stated cut-off is given here; in the data, active = GI50 up to about 1.1 µM and inactive = higher.

For the compound `CN(C)c1ccc(C=C2C(=O)NC(=S)NC2=O)c2ccccc12`, the GI50 in [1] is 39.8 µM (inactive); in assay [2], > 100 µM (inactive); in assay [3], > 100 µM (inactive); in [4], > 100 µM (inactive); in assay [5], 26.5 µM (inactive); in [6], 40.9 µM (inactive). For the same compound, the GI50 is 26.9 µM (inactive) in assay [7]; 67.6 µM (inactive) in assay [8]; 38.9 µM (inactive) in assay [9]; 49.9 µM (inactive) in assay [10]; 18.5 µM (inactive) in assay [11]; 27 µM (inactive) in assay [12]. Also, the GI50 in [13] is > 100 µM (inactive); in [14] it was 36 µM (inactive); in assay [15], > 100 µM (inactive); in assay [16], 61.2 µM (inactive); in [17] it was 30.1 µM (inactive); in [18] it was 46.6 µM (inactive). Also, the GI50 in assay [19] and in [20] was > 100 µM (inactive) each time.

Regarding `CC1=C(C(=O)OC(C)C)C(c2cccc([N+](=O)[O-])c2)C(C(=O)OC(CO[N+](=O)[O-])CO[N+](=O)[O-])=C(C)N1` (stereo not given), the GI50 in assay [1] is 3.56 µM (inactive); in [2] it was 2.93 µM (inactive); in assay [3], 11.4 µM (inactive); in assay [4] it was 4.37 µM (inactive); in assay [5] it was 3.51 µM (inactive); in [6] it was 2.76 µM (inactive). In addition, the GI50 in [7] was 3.08 µM (inactive); in assay [8], 0.61 µM (active); in assay [9], 3.15 µM (inactive); in assay [10], 5.15 µM (inactive); in assay [11], 1.85 µM (inactive); in assay [12], 3.85 µM (inactive). Besides, the GI50 was 0.501 µM (active) in [13]; 3.01 µM (inactive) in assay [14]; 7.01 µM (inactive) in assay [15]; 2.99 µM (inactive) in assay [16]; 2.66 µM (inactive) in assay [17]; 4.14 µM (inactive) in assay [18]. The GI50 in [19] is 3.54 µM (inactive); in assay [20] it was 2.65 µM (inactive).

On to `Cc1nc2c(o1)C(=O)c1ccccc1/C2=N\c1ccccc1`, for which the GI50 in assay [1] is 8.38 µM (inactive); in assay [2], 13.9 µM (inactive); in [3] it was 1.74 µM (inactive); in assay [4], 5.78 µM (inactive); in [5] it was 1.62 µM (inactive); in [6] it was 2.62 µM (inactive). In addition, the GI50 in assay [7] is 1.59 µM (inactive); in assay [8] it was 2.37 µM (inactive); in assay [9] it was 0.352 µM (active); in [10], 1.36 µM (inactive); in assay [11], 1.86 µM (inactive); in [12] it was 2 µM (inactive). Besides, the GI50 in assay [13] is 4.53 µM (inactive); in assay [14], 2.9 µM (inactive); in assay [15] it was 17.4 µM (inactive); in assay [16] it was 3.96 µM (inactive); in assay [17], 2.12 µM (inactive); in assay [18], 2.58 µM (inactive). Also, the GI50 in assay [19] is 2.05 µM (inactive); in [20], 2.46 µM (inactive).

As to `OCC1OC(n2cnc3c(Cl)nc(Nc4ccccc4)nc32)CC1O` (stereo not given), the GI50 was > 100 µM (inactive) in assay [1]; > 100 µM (inactive) in assay [2]; > 100 µM (inactive) in [3]; 2.94 µM (inactive) in assay [4]; 35.2 µM (inactive) in [5]; 32.7 µM (inactive) in [6]. Besides, the GI50 in assay [7] was 19.2 µM (inactive); in assay [8] it was > 100 µM (inactive); in [9] it was 60.1 µM (inactive); in assay [10] it was 18.7 µM (inactive); in [11] it was 5.2 µM (inactive); in assay [12], > 100 µM (inactive). The GI50 in assay [13] was > 100 µM (inactive); in [14] it was > 100 µM (inactive); in [15], > 100 µM (inactive); in assay [16], > 100 µM (inactive); in assay [17] it was 42.6 µM (inactive); in assay [18], > 100 µM (inactive). The GI50 in [19] is 59.3 µM (inactive); in [20], 40.5 µM (inactive).
